The test has as its system experimental rabbit ear acne. In words: Pharmacodynamics evaluation of acne: coal tar rabbit ear acne model, HE pathology. Type of test: in vivo, Japanese big-ear white rabbits. The conditions noted are these: 0.01% ointment, 1 g per animal, once a day, two weeks, 10 rabbits per group; for Degree of keratinization: number of rabbits graded + / Degree of keratinization: number of rabbits graded ++ / Degree of keratinization: number of rabbits graded +++ / Degree of keratinization: number of rabbits graded −: hair follicle keratinization. From the text:
There are 140 male healthy Japanese big-ear white rabbits, weighing 2.0-2.5 kg. After one week of adaptive rearing, 10 rabbits were randomly selected according to their body weights as the normal control group, and the remaining 130 rabbits were coated with coal tar once a day in the area of 2×2 cm2 at 2 cm outside the opening of ear canal, with a thickness of about 0.5 mm (Before coating, the coal tar was heated to melt in a water bath, and the last coal tar shell was removed before each application; the rabbits in normal control group were coated with olive oil by the same method as before). After 3 weeks for modeling, according to the degree of skin lesion, 130 rabbits were randomly divided into 13 groups which is model control group, Example 1 compound (1 group), Example 2 compound (2 groups), Example 3 compound (3 groups), Example 4 (4 groups), Example 5 (5 groups), Example 6 (6 groups), Example 7 (7 groups), Example 8 (8 groups), Example 9 (9 groups), Example 10 (10 groups), Example 11 (11 groups), Example 12 (12 groups), Example 13 (13 groups), and each group had 10 rabbits. After grouping, each dose group were continued to be coated coal tar in the morning, and after the coal tar was removed in the afternoon, apply the test drug or control drug (both 0.01%/10 g ointment, apply 1 g ointment per animal) on the lesion, once a day, for two consecutive weeks (the model control group and the normal control group were coated with the same amount of matrix). 24 hours after the last administration, the animals were sacrificed by air embolism, and the skin (full thickness) of the ear where the administration was administered was taken, fixed with 4% paraformaldehyde solution, stained with HE, and routinely observed for pathology.1.

Each structure is given as a SMILES string.

With `CC(=O)ON=C1C=C2CC[C@H]3[C@H](CC[C@]4(C)C(c5cccnc5)=CC[C@@H]34)[C@@]2(C)CC1` [Example 7, (8S,9S,10R,13S,14S)-10,13-Dimethyl-17-(pyridin-3-yl) -6,7,8,9,10,11,12,13,14,15-decahydro-1H-cyclopenta[a]phenanthrenyl-3(2H)-one O-acetyloxime], the “degree of inflammatory cell infiltration: number of rabbits graded +” value worked out at 5, the “degree of inflammatory cell infiltration: number of rabbits graded ++” value is 3, the “degree of inflammatory cell infiltration: number of rabbits graded +++” value stood at 2 and the “degree of inflammatory cell infiltration: number of rabbits graded −” value was determined as 0. The “Degree of keratinization: number of rabbits graded +” value amounted to 6, the “Degree of keratinization: number of rabbits graded ++” value was 4, the “Degree of keratinization: number of rabbits graded +++” value is reported as 0 and the “Degree of keratinization: number of rabbits graded −” value was 0.

In the case of `CC(C)C(=O)OCOC(=O)ON=C1C=C2CC[C@H]3[C@H](CC[C@]4(C)C(c5cccnc5)=CC[C@@H]34)[C@@]2(C)CC1` [Example 8, ((((((8S,9S,10R,13S,14S)-10,13-dimethyl-17-(pyridin-3-yl) -7,8,9,11,12,13,14,15-octahydro-1H-cyclopenta[a]phenanthrenyl-3(2H,6H,10H) -ylidene)amino)oxy)carbonyl)oxy)methyl isobutyrate], the “degree of inflammatory cell infiltration: number of rabbits graded +” value is listed as 4, the “degree of inflammatory cell infiltration: number of rabbits graded ++” value stood at 4, the “degree of inflammatory cell infiltration: number of rabbits graded +++” value came to 2 and the “degree of inflammatory cell infiltration: number of rabbits graded −” value is recorded as 0. The “Degree of keratinization: number of rabbits graded +” value is 5, the “Degree of keratinization: number of rabbits graded ++” value was 5, the “Degree of keratinization: number of rabbits graded +++” value is reported as 0 and the “Degree of keratinization: number of rabbits graded −” value amounted to 0.

Turning to `C[C@]12CCC(=NOC(=O)OCCN3CCOCC3)C=C1CC[C@H]1[C@@H]2CC[C@]2(C)C(c3cccnc3)=CC[C@@H]12` [Example 9], the “degree of inflammatory cell infiltration: number of rabbits graded +” value was determined as 5, the “degree of inflammatory cell infiltration: number of rabbits graded ++” value was found to be 4, the “degree of inflammatory cell infiltration: number of rabbits graded +++” value stood at 1 and the “degree of inflammatory cell infiltration: number of rabbits graded −” value was found to be 0. In addition, the “Degree of keratinization: number of rabbits graded +” value was determined as 6, the “Degree of keratinization: number of rabbits graded ++” value is 4, the “Degree of keratinization: number of rabbits graded +++” value is on record as 0 and the “Degree of keratinization: number of rabbits graded −” value came to 0.

As to `C[C@]12CCC(=NOC(=O)C3CCNCC3)C=C1CC[C@H]1[C@@H]2CC[C@]2(C)C(c3cccnc3)=CC[C@@H]12` [Example 10, (8S,9S,10R,13S,14S)-10,13-Dimethyl-17-(pyridin-3-yl) -6,7,8,9,10,11,12,13,14,15-decahydro-1H-cyclopenta[a]phenanthrenyl-3(2H)-one O-piperidine-4-carbonyl oxime], the “degree of inflammatory cell infiltration: number of rabbits graded +” value is on record as 5, the “degree of inflammatory cell infiltration: number of rabbits graded ++” value came out at 3, the “degree of inflammatory cell infiltration: number of rabbits graded +++” value came to 2 and the “degree of inflammatory cell infiltration: number of rabbits graded −” value is listed as 0. For the same molecule, the “Degree of keratinization: number of rabbits graded +” value came out at 6, the “Degree of keratinization: number of rabbits graded ++” value stood at 3, the “Degree of keratinization: number of rabbits graded +++” value worked out at 0 and the “Degree of keratinization: number of rabbits graded −” value was 1.

(Values after US20240208905A1, “ABIRATERONE DERIVATIVE, PREPARATION AND APPLICATION THEREOF” (GUANGDONG ZHONGKE MEDICINE R&D LTD., priority 2021, published 2024).)
